{
  "source": "patent US10913727B2",
  "about": "“Modulators of the integrated stress pathway” (Calico Life Sciences LLC, priority 2016, dated 2021)",
  "data": [
    {"tested_on": "HEK293T cells carrying the ATF4 luciferase reporter", "test": "ATF4-Luc assay, in vitro model of Vanishing Cell White Matter Disease (VWMD)", "format": "cell-based", "conditions": "Homo sapiens, HEK-293T, 1 μg/mL tunicamycin, 7 hours, One Glo luminescence", "in_short": "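Reporter cells were stably generated by retroviral transduction and puromycin selection, then seeded at 30,000 cells/well. Next day, cells received 1 μg/mL tunicamycin with 200 nM test compound for 7 h, and luciferase luminescence was read with a one-step reagent. Values reported as EC50.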", "units": {"EC50": "nM"}, "values": [
      {"smiles": "CN(C(=O)c1cnc(C(F)F)cn1)C12CC(NC(=O)COc3ccc(Cl)c(F)c3)(C1)C2", "note": "[Compound 352, N-{3-[2-(4-chloro-3-fluorophenoxy)acetamido]bicyclo[1.1.1]pentan-1-yl}-5-(difluoromethyl)-N-methylpyrazine-2-carboxamide]", "EC50": "50 to 250"},
      {"smiles": "COc1cc(C(=O)NC23CC(NC(=O)COc4ccc(Cl)c(F)c4)(C2)C3)ccc1F", "note": "[Compound 531, N-{3-[2-(4-chloro-3-fluorophenoxy)acetamido]bicyclo[1.1.1]pentan-1-yl}-4-fluoro-3-methoxybenzamide]", "EC50": "1000 to 2000"},
      {"smiles": "O=C(COc1ccc(Cl)c(F)c1)NC12CCC(NC(=O)c3cnc(-c4ccccc4)o3)(CC1)C[C@@H]2O", "note": "[Compound 931, N-{(3S)-4-[2-(4-chloro-3-fluorophenoxy)acetamido]-3-hydroxybicyclo[2.2.2]octan-1-yl}-2-phenyl-1,3-oxazole-5-carboxamide]", "EC50": "< 50"},
      {"smiles": "CSCc1ccc(C(=O)NC23CC(NC(=O)COc4ccc(Cl)c(F)c4)(C2)C3)o1", "note": "[Compound 830, N-{3-[2-(4-chloro-3-fluorophenoxy)acetamido]bicyclo[1.1.1]pentan-1-yl}-5-[(methylsulfanyl)methyl]furan-2-carboxamide]", "EC50": "50 to 250"},
      {"smiles": "O=C(COc1ccc(Cl)c(F)c1)NC12CCC(NC(=O)c3cccs3)(CC1)CC2O", "note": "(stereo not drawn) [Compound 611, N-{4-[2-(4-chloro-3-fluorophenoxy)acetamido]-3-hydroxybicyclo[2.2.2]octan-1-yl}thiophene-2-carboxamide]", "EC50": "< 50"},
      {"smiles": "Cn1cc(C(=O)NC23CC(NC(=O)COc4ccc(Cl)c(F)c4)(C2)C3)c(C(F)(F)F)n1", "note": "[Compound 868, N-{3-[2-(4-chloro-3-fluorophenoxy)acetamido]bicyclo[1.1.1]pentan-1-yl}-1-methyl-3-(trifluoromethyl)-1H-pyrazole-4-carboxamide]", "EC50": "> 2000"},
      {"smiles": "O=C(COc1ccc(Cl)c(F)c1)NC12CCC(NC(=O)c3cc(C(F)F)cs3)(CC1)C[C@@H]2O", "note": "[Compound 665, N-{(3S)-4-[2-(4-chloro-3-fluorophenoxy)acetamido]-3-hydroxybicyclo[2.2.2]octan-1-yl}-4-(difluoromethyl)thiophene-2-carboxamide]", "EC50": "< 50"},
      {"smiles": "O=C(COc1ccc(Cl)c(F)c1)NC12CCC(NC(=O)c3ccccc3F)(CC1)C[C@@H]2O", "note": "[Compound 560, N-{(3S)-4-[2-(4-chloro-3-fluorophenoxy)acetamido]-3-hydroxybicyclo[2.2.2]octan-1-yl}-2-fluorobenzamide]", "EC50": "50 to 250"},
      {"smiles": "Cn1nc(C(=O)NC23CC(NC(=O)COc4ccc(Cl)c(F)c4)(C2)C3)c2ccccc21", "note": "[Compound 823, N-{3-[2-(4-chloro-3-fluorophenoxy)acetamido]bicyclo[1.1.1]pentan-1-yl}-1-methyl-1H-indazole-3-carboxamide]", "EC50": "> 2000"},
      {"smiles": "O=C(COc1ccc(Cl)c(F)c1)NC12CC(NC(=O)c3ccc(O)nc3)(C1)C2", "note": "[Compound 322, N-{3-[2-(4-chloro-3-fluorophenoxy)acetamido]bicyclo[1.1.1]pentan-1-yl}-6-hydroxypyridine-3-carboxamide]", "EC50": "> 2000"},
      {"smiles": "CC(C)(C)OC(=O)NCc1ccnc(C(=O)NC23CC(NC(=O)COc4ccc(Cl)c(Cl)c4)(C2)C3)c1", "note": "[Compound 580, tert-butyl {[2-({3-[2-(3,4-dichlorophenoxy)acetamido]bicyclo[1.1.1]pentan-1-yl}carbamoyl)pyridin-4-yl]methyl}carbamate]", "EC50": "> 2000"},
      {"smiles": "O=C(COc1ccc(Cl)c(F)c1)NC12CC(NC(=O)c3cc(F)cc(F)c3)(C1)C2", "note": "[Compound 513, N-{3-[2-(4-chloro-3-fluorophenoxy)acetamido]bicyclo[1.1.1]pentan-1-yl}-3,5-difluorobenzamide]", "EC50": "50 to 250"},
      {"smiles": "Cc1nocc1C(=O)NC12CCC(NC(=O)COc3ccc(Cl)c(F)c3)(CC1)C(O)C2", "note": "(stereo not drawn) [Compound 605, N-{4-[2-(4-chloro-3-fluorophenoxy)acetamido]-3-hydroxybicyclo[2.2.2]octan-1-yl}-3-methyl-1,2-oxazole-4-carboxamide]", "EC50": "> 2000"},
      {"smiles": "COc1ncccc1C(=O)NC12CC(NC(=O)COc3ccc(Cl)c(F)c3)(C1)C2", "note": "[Compound 809, N-{3-[2-(4-chloro-3-fluorophenoxy)acetamido]bicyclo[1.1.1]pentan-1-yl}-2-methoxypyridine-3-carboxamide]", "EC50": "> 2000"},
      {"smiles": "O=C(COc1ccc(Cl)c(F)c1)NC12CC(NC(=O)c3cccc4c3OCO4)(C1)C2", "note": "[Compound 240, N-{3-[2-(4-chloro-3-fluorophenoxy)acetamido]bicyclo[1.1.1]pentan-1-yl}-2H-1,3-benzodioxole-4-carboxamide]", "EC50": "1000 to 2000"},
      {"smiles": "O=C(COc1ccc(Cl)c(F)c1)NC12CC(NC(=O)c3ccccc3Cn3cccn3)(C1)C2", "note": "[Compound 890, N-{3-[2-(4-chloro-3-fluorophenoxy)acetamido]bicyclo[1.1.1]pentan-1-yl}-2-[(1H-pyrazol-1-yl)methyl]benzamide]", "EC50": "> 2000"},
      {"smiles": "CC(=O)Nc1nc(C(=O)NC23CC(NC(=O)COc4ccc(Cl)c(F)c4)(C2)C3)cs1", "note": "[Compound 870, 2-acetamido-N-{3-[2-(4-chloro-3-fluorophenoxy)acetamido]bicyclo[1.1.1]pentan-1-yl}-1,3-thiazole-4-carboxamide]", "EC50": "> 2000"},
      {"smiles": "Cn1ccc(C(=O)NC23CC(NC(=O)COc4ccc(Cl)c(F)c4)(C2)C3)n1", "note": "[Compound 389, N-{3-[2-(4-chloro-3-fluorophenoxy)acetamido]bicyclo[1.1.1]pentan-1-yl}-1-methyl-1H-pyrazole-3-carboxamide]", "EC50": "250 to 1000"},
      {"smiles": "CC(C)(C)c1cc(C(=O)NC23CCC(NC(=O)COc4ccc(Cl)c(F)c4)(CC2)C(O)C3)on1", "note": "(stereo not drawn) [Compound 353, 3-tert-butyl-N-{4-[2-(4-chloro-3-fluorophenoxy)acetamido]-3-hydroxybicyclo[2.2.2]octan-1-yl}-1,2-oxazole-5-carboxamide]", "EC50": "50 to 250"},
      {"smiles": "O=C(COc1ccc(Cl)c(Cl)c1)NC12CCC(NC(=O)c3cc(C(F)F)no3)(CC1)C[C@@H]2O", "note": "[Compound 758, N-{(3S)-4-[2-(3,4-dichlorophenoxy)acetamido]-3-hydroxybicyclo[2.2.2]octan-1-yl}-3-(difluoromethyl)-1,2-oxazole-5-carboxamide]", "EC50": "< 50"},
      {"smiles": "Cn1ccc(C(=O)NC23CC(NC(=O)COc4ccc(Cl)c(Cl)c4)(C2)C3)n1", "note": "[Compound 713, N-{3-[2-(3,4-dichlorophenoxy)acetamido]bicyclo[1.1.1]pentan-1-yl}-1-methyl-1H-pyrazole-3-carboxamide]", "EC50": "50 to 250"},
      {"smiles": "O=C(COc1ccc(Cl)c(F)c1)NC12CCC(NC(=O)c3cnccn3)(CC1)C[C@@H]2O", "note": "[Compound 670, N-{(3S)-4-[2-(4-chloro-3-fluorophenoxy)acetamido]-3-hydroxybicyclo[2.2.2]octan-1-yl}pyrazine-2-carboxamide]", "EC50": "< 50"},
      {"smiles": "Cc1c(-c2cc(C(=O)NC34CC(NC(=O)COc5ccc(Cl)c(F)c5)(C3)C4)no2)cnn1C", "note": "[Compound 840, N-{3-[2-(4-chloro-3-fluorophenoxy)acetamido]bicyclo[1.1.1]pentan-1-yl}-5-(1,5-dimethyl-1H-pyrazol-4-yl)-1,2-oxazole-3-carboxamide]", "EC50": "1000 to 2000"},
      {"smiles": "COc1cc(C(=O)NC23CC(NC(=O)COc4ccc(Cl)c(Cl)c4)(C2)C3)on1", "note": "[Compound 709, N-{3-[2-(3,4-dichlorophenoxy)acetamido]bicyclo[1.1.1]pentan-1-yl}-3-methoxy-1,2-oxazole-5-carboxamide]", "EC50": "50 to 250"},
      {"smiles": "O=C(COc1ccc(Cl)c(F)c1)NC12CCC(NC(=O)c3ccc(OC(F)(F)F)cn3)(CC1)C[C@@H]2O", "note": "[Compound 682, N-{(3S)-4-[2-(4-chloro-3-fluorophenoxy)acetamido]-3-hydroxybicyclo[2.2.2]octan-1-yl}-5-(trifluoromethoxy)pyridine-2-carboxamide]", "EC50": "< 50"},
      {"smiles": "CCCc1ncc(C(=O)NC23CC(NC(=O)COc4ccc(Cl)c(F)c4)(C2)C3)s1", "note": "[Compound 293, N-{3-[2-(4-chloro-3-fluorophenoxy)acetamido]bicyclo[1.1.1]pentan-1-yl}-2-propyl-1,3-thiazole-5-carboxamide]", "EC50": "< 50"},
      {"smiles": "O=C(COc1ccc(Cl)c(F)c1)NC12CC(NC(=O)c3cc(NC4CC4)ccn3)(C1)C2", "note": "[Compound 390, N-{3-[2-(4-chloro-3-fluorophenoxy)acetamido]bicyclo[1.1.1]pentan-1-yl}-4-(cyclopropylamino)pyridine-2-carboxamide]", "EC50": "1000 to 2000"},
      {"smiles": "O=C(COc1ccc(Cl)c(F)c1)NC12CC(NC(=O)c3cccc(C(F)(F)F)n3)(C1)C2", "note": "[Compound 781, N-{3-[2-(4-chloro-3-fluorophenoxy)acetamido]bicyclo[1.1.1]pentan-1-yl}-6-(trifluoromethyl)pyridine-2-carboxamide]", "EC50": "> 2000"},
      {"smiles": "Cc1cc(C(=O)NC23CCC(NC(=O)COc4ccc(F)c(F)c4)(CC2)C(=O)C3)on1", "note": "[Compound 461, N-{4-[2-(3,4-difluorophenoxy)acetamido]-3-oxobicyclo[2.2.2]octan-1-yl}-3-methyl-1,2-oxazole-5-carboxamide]", "EC50": "1000 to 2000"},
      {"smiles": "Cc1cnn2ccc(NC34CC(NC(=O)COc5ccc(Cl)c(F)c5)(C3)C4)nc12", "note": "[Compound 610, 2-(4-chloro-3-fluorophenoxy)-N-{3-[(3-methylpyrazolo[1,5-a]pyrimidin-5-yl)amino]bicyclo[1.1.1]pentan-1-yl}acetamide]", "EC50": "1000 to 2000"},
      {"smiles": "COCCCc1cnc(C(=O)NC23CC(NC(=O)COc4ccc(Cl)c(F)c4)(C2)C3)cn1", "note": "[Compound 172, N-{3-[2-(4-chloro-3-fluorophenoxy)acetamido]bicyclo[1.1.1]pentan-1-yl}-5-(3-methoxypropyl)pyrazine-2-carboxamide]", "EC50": "250 to 1000"},
      {"smiles": "Cc1nc(C(F)(F)F)c(C(=O)NC23CC(NC(=O)COc4ccc(Cl)c(F)c4)(C2)C3)s1", "note": "[Compound 837, N-{3-[2-(4-chloro-3-fluorophenoxy)acetamido]bicyclo[1.1.1]pentan-1-yl}-2-methyl-4-(trifluoromethyl)-1,3-thiazole-5-carboxamide]", "EC50": "> 2000"},
      {"smiles": "CCc1cc(C(=O)NC23CC(NC(=O)COc4ccc(Cl)c(F)c4)(C2)C3)on1", "note": "[Compound 323, N-{3-[2-(4-chloro-3-fluorophenoxy)acetamido]bicyclo[1.1.1]pentan-1-yl}-3-ethyl-1,2-oxazole-5-carboxamide]", "EC50": "250 to 1000"}
    ]}
  ]
}
